Measured values as given in paper PMC11955521, “A GTP-driven central carbon metabolism in the cellulolytic bacterium Ruminiclostridium cellulolyticum” (Communications Biology, 2025).

Molecular target: T1, Pyruvate kinase (PK) (Ruminiclostridium cellulolyticum, UniProt B8I6Q5)
T1 construct: gene Ccel_2569; full-length, C-terminal His tag (pET28a), E. coli BL21(DE3), Ni-NTA and anion exchange
T1 sequence (B8I6Q5 1-580): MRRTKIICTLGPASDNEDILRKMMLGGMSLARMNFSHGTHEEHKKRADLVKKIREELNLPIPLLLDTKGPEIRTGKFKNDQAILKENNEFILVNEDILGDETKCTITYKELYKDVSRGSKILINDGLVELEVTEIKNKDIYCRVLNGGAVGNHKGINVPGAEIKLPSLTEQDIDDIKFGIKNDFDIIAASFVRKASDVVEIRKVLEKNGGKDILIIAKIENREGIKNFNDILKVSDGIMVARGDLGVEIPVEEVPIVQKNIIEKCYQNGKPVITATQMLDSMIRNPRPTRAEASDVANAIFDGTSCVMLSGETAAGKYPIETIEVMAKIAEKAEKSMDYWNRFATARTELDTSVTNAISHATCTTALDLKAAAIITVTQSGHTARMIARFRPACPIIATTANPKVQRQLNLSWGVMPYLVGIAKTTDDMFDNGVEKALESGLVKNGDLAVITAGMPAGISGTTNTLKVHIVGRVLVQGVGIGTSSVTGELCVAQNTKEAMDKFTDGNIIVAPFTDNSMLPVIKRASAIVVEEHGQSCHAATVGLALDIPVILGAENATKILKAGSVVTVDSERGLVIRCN
Test: activation of PK, HPLC-RI of pyruvate
Assay type: biochemical
Conditions: allosteric activator only with GDP as co-substrate; FBP 0.5, 3, 10 mM; 20 mM MgCl2, 30 mM KCl, pH 7.0, 37 °C

SMILES: O=P(O)(O)OC[C@H]1OC(O)(COP(=O)(O)O)[C@@H](O)[C@@H]1O (stereo partly shown) [FBP]
- activation of PK, HPLC-RI of pyruvate: FBP was found to act as a potent allosteric activator only when GDP is the co-substrate
